Columns and labels:
Format in all cases: cell-based
P. aeruginosa = P. aeruginosa strain PA004
S. epidermidis = S. epidermidis strain SE010
S. aureus = S. aureus strain SA093
[1] = test system: microorganisms with acquired resistance; assay: microbe, parasite or virus in culture
S. maltophilia = S. maltophilia strain SMA002
[2] = test system: inherently resistant microorganisms; assay: microbe, parasite or virus in culture
K. pneumoniae = K. pneumoniae strain KP001
E. cloacae = E. cloacae strain ECL007
A. calcoaceticus = A. calcoaceticus strain AC002
bacterial isolates = assay: microbe, parasite or virus in culture
S. marcescens = S. marcescens strain SMS003
E. faecalis = E. faecalis strain EFS001
E. coli = E. coli strain ECO005
[3] = peptide + Amikacin, P. aeruginosa PA022
[4] = peptide + Gentamicin, A. baumannii ABI001
[5] = peptide + Gentamicin, A. baumannii ABI002
[6] = peptide + Gentamicin, A. calcoaceticus AC001
[7] = peptide + Gentamicin, P. aeruginosa PA041
[8] = peptide + Gentamicin, S. maltophilia SMA019

## ILRWPWWPWRRKIMILKKAGS [MBI 11B16CN]
P. aeruginosa
  MIC: >128 µg/mL
S. epidermidis
  MIC: 4 µg/mL
S. aureus
  MIC: 2 µg/mL
[1]; A. baumannii ABI001
  Gentamicin MIC + Peptide: 4 µg/mL
  Peptide MIC + Gentamicin: 4 µg/mL
[1]; A. baumannii ABI001, Gentamicin section
  Peptide MIC Alone: 16 µg/mL
[1]; A. baumannii ABI002
  Gentamicin MIC + Peptide: 2 µg/mL
  Peptide MIC + Gentamicin: 4 µg/mL
[1]; A. baumannii ABI002, Gentamicin section
  Peptide MIC Alone: 16 µg/mL
[1]; A. calcoaceticus AC001
  Gentamicin MIC + Peptide: 1 µg/mL
  Peptide MIC + Gentamicin: 4 µg/mL
[1]; A. calcoaceticus AC001, Gentamicin section
  Peptide MIC Alone: 32 µg/mL
[1]; P. aeruginosa PA022
  Amikacin MIC + Peptide: 8 µg/mL
  Peptide MIC + Amikacin: 16 µg/mL
[1]; P. aeruginosa PA022, Amikacin section
  Peptide MIC Alone: 64 µg/mL
[1]; P. aeruginosa PA023
  Gentamicin MIC + Peptide: 4 µg/mL
  Peptide MIC + Gentamicin: 16 µg/mL
[1]; P. aeruginosa PA023, Gentamicin section
  Peptide MIC Alone: >128 µg/mL
[1]; P. aeruginosa PA041
  Gentamicin MIC + Peptide: 2 µg/mL
  Peptide MIC + Gentamicin: 16 µg/mL
[1]; P. aeruginosa PA041, Gentamicin section
  Peptide MIC Alone: >128 µg/mL
[1]; S. maltophilia SMA017
  Gentamicin MIC + Peptide: 2 µg/mL
  Peptide MIC + Gentamicin: 16 µg/mL
[1]; S. maltophilia SMA017, Gentamicin section
  Peptide MIC Alone: 128 µg/mL
[1]; S. maltophilia SMA019
  Gentamicin MIC + Peptide: 0.5 µg/mL
  Peptide MIC + Gentamicin: 16 µg/mL
[1]; S. maltophilia SMA019, Gentamicin section
  Peptide MIC Alone: 32 µg/mL
[1]; [3]
  FIC: 0.38
[1]; [4]
  FIC: 0.31
[1]; [5]
  FIC: 0.31
[1]; [6]
  FIC: 0.25
[1]; peptide + Gentamicin, P. aeruginosa PA023
  FIC: 0.56
[1]; [7]
  FIC: 0.31
[1]; peptide + Gentamicin, S. maltophilia SMA017
  FIC: 0.16
[1]; [8]
  FIC: 0.51
S. maltophilia
  MIC: 32 µg/mL
[2]; A. baumannii
  Peptide MIC + Amikacin: 4 µg/mL
[2]; A. baumannii, Amikacin section
  Peptide MIC Alone: 32 µg/mL
[2]; S. aureus MRSA
  Peptide MIC + Amikacin: 4 µg/mL
  Peptide MIC + Gentamicin: 4 µg/mL
[2]; S. aureus MRSA, Amikacin section
  Peptide MIC Alone: 8 µg/mL
[2]; S. aureus MRSA, Gentamicin section
  Peptide MIC Alone: 8 µg/mL
[2]; peptide + Amikacin, A. baumannii
  FIC: 0.25
[2]; peptide + Gentamicin, S. aureus MRSA
  FIC: 0.53
K. pneumoniae
  MIC: 16 µg/mL
E. cloacae
  MIC: >128 µg/mL
A. calcoaceticus
  MIC: 4 µg/mL
Bacterial isolates; 1. Amikacin, A. baumannii ABI001
  Peptide MIC Alone: 32 µg/mL
Bacterial isolates; 1. Amikacin, A. baumannii ABI003
  Peptide MIC Alone: 16 µg/mL
Bacterial isolates; 1. Amikacin, E. faecalis EFS008
  Peptide MIC Alone: 8 µg/mL
Bacterial isolates; 1. Amikacin, P. aeruginosa PA022
  Peptide MIC Alone: 64 µg/mL
Bacterial isolates; 1. Amikacin, P. aeruginosa PA037
  Peptide MIC Alone: >128 µg/mL
Bacterial isolates; 1. Amikacin, S. maltophilia SMA018
  Peptide MIC Alone: 32 µg/mL
Bacterial isolates; 1. Amikacin, S. maltophilia SMA022
  Peptide MIC Alone: >128 µg/mL
Bacterial isolates; 4. Gentamicin, A. baumannii ABI001
  Peptide MIC Alone: 16 µg/mL
Bacterial isolates; 4. Gentamicin, A. baumannii ABI002
  Peptide MIC Alone: 16 µg/mL
Bacterial isolates; 4. Gentamicin, A. calcoaceticus AC001
  Peptide MIC Alone: 32 µg/mL
Bacterial isolates; 4. Gentamicin, E. faecalis EFS008
  Peptide MIC Alone: 4 µg/mL
Bacterial isolates; 4. Gentamicin, P. aeruginosa PA022
  Peptide MIC Alone: 64 µg/mL
Bacterial isolates; 4. Gentamicin, P. aeruginosa PA041
  Peptide MIC Alone: >128 µg/mL
Bacterial isolates; 4. Gentamicin, S. aureus SA014 MRSA
  Peptide MIC Alone: 8 µg/mL
Bacterial isolates; 4. Gentamicin, S. maltophilia SMA016
  Peptide MIC Alone: >128 µg/mL
Bacterial isolates; 4. Gentamicin, S. maltophilia SMA019
  Peptide MIC Alone: 32 µg/mL
Bacterial isolates; A. baumannii ABI001
  Amikacin MIC + Peptide: 0.125 µg/mL
  Gentamicin MIC + Peptide: 4 µg/mL
  Peptide MIC + Amikacin: 16 µg/mL
  Peptide MIC + Gentamicin: 4 µg/mL
Bacterial isolates; A. baumannii ABI002
  Gentamicin MIC + Peptide: 2 µg/mL
  Peptide MIC + Gentamicin: 4 µg/mL
Bacterial isolates; A. baumannii ABI003
  Amikacin MIC + Peptide: 0.5 µg/mL
  Peptide MIC + Amikacin: 8 µg/mL
Bacterial isolates; A. calcoaceticus AC001
  Gentamicin MIC + Peptide: 1 µg/mL
  Peptide MIC + Gentamicin: 4 µg/mL
Bacterial isolates; E. faecalis EFS008
  Amikacin MIC + Peptide: 8 µg/mL
  Gentamicin MIC + Peptide: 64 µg/mL
  Peptide MIC + Amikacin: 0.25 µg/mL
  Peptide MIC + Gentamicin: 0.5 µg/mL
Bacterial isolates; P. aeruginosa PA022
  Amikacin MIC + Peptide: 8 µg/mL
  Gentamicin MIC + Peptide: 8 µg/mL
  Peptide MIC + Amikacin: 16 µg/mL
  Peptide MIC + Gentamicin: 8 µg/mL
Bacterial isolates; P. aeruginosa PA037
  Amikacin MIC + Peptide: 2 µg/mL
  Peptide MIC + Amikacin: 32 µg/mL
Bacterial isolates; P. aeruginosa PA041
  Gentamicin MIC + Peptide: 2 µg/mL
  Peptide MIC + Gentamicin: 16 µg/mL
Bacterial isolates; S. aureus SA014 MRSA
  Gentamicin MIC + Peptide: 1 µg/mL
  Peptide MIC + Gentamicin: 4 µg/mL
Bacterial isolates; S. maltophilia SMA016
  Gentamicin MIC + Peptide: 64 µg/mL
  Peptide MIC + Gentamicin: 16 µg/mL
Bacterial isolates; S. maltophilia SMA018
  Amikacin MIC + Peptide: 8 µg/mL
  Peptide MIC + Amikacin: 8 µg/mL
Bacterial isolates; S. maltophilia SMA019
  Gentamicin MIC + Peptide: 8 µg/mL
  Peptide MIC + Gentamicin: 8 µg/mL
Bacterial isolates; S. maltophilia SMA022
  Amikacin MIC + Peptide: 8 µg/mL
  Peptide MIC + Amikacin: 16 µg/mL
Bacterial isolates; peptide + Amikacin, A. baumannii ABI001
  FIC: 0.50
Bacterial isolates; peptide + Amikacin, A. baumannii ABI003
  FIC: 0.53
Bacterial isolates; peptide + Amikacin, E. faecalis EFS008
  FIC: 0.28
Bacterial isolates; [3]
  FIC: 0.38
Bacterial isolates; peptide + Amikacin, P. aeruginosa PA037
  FIC: 0.25
Bacterial isolates; peptide + Amikacin, S. maltophilia SMA018
  FIC: 0.31
Bacterial isolates; peptide + Amikacin, S. maltophilia SMA022
  FIC: 0.09
Bacterial isolates; [4]
  FIC: 0.31
Bacterial isolates; [5]
  FIC: 0.31
Bacterial isolates; [6]
  FIC: 0.25
Bacterial isolates; peptide + Gentamicin, E. faecalis EFS008
  FIC: 0.38
Bacterial isolates; peptide + Gentamicin, P. aeruginosa PA022
  FIC: 0.38
Bacterial isolates; [7]
  FIC: 0.31
Bacterial isolates; peptide + Gentamicin, S. aureus SA014 MRSA
  FIC: 0.53
Bacterial isolates; peptide + Gentamicin, S. maltophilia SMA016
  FIC: 0.31
Bacterial isolates; [8]
  FIC: 0.38
S. marcescens
  MIC: >128 µg/mL
E. faecalis
  MIC: 2 µg/mL
E. coli
  MIC: 16 µg/mL

Source: patent US20020035061A1, “COMPOSITIONS AND METHODS FOR TREATING INFECTIONS USING CATIONIC PEPTIDES ALONE OR IN COMBINATION WITH ANTIBIOTICS” (priority 1996, published 2002)
